Legend:
[1] = test system: Arabidopsis T1 plants transformed with 24DT21 nucleotide sequence; assay: Herbicide resistance effect test of transgenic Arabidopsis T1 plants (spraying); type: in vivo, Arabidopsis thaliana; conditions: genotype 24DT21, 560 g ae/ha (1x)
Text: (§1) 24DT21 gene was used to transform Arabidopsis for the first time. At first, T1 transformants were selected from the background of un-transformed seeds, using glufosinate-ammonium selection scheme. About 20000 T1 seeds are screened among which 139 strains of T1 generation positive transformants (PAT gene) were identified, i.e. the transformation efficiency was about 0.7%. Herbicide resistance effect tests to 2,4-D dimethyl ammonium salt and agroxone of Arabidopsis T1 plants transformed with 24DT21 nucleotide sequence, control nucleotide sequence respectively and wild-type Arabidopsis plants were performed after 18 days of planting.
(§2) Arabidopsis T1 plants transformed with 24DT21 nucleotide sequence, control nucleotide sequence respectively and wild-type Arabidopsis plants were sprayed with 2,4-D dimethyl ammonium salt (560 g ae/ha, 1-fold concentration in field), agroxone (560 g ae/ha, 1-fold concentration in field) and blank solvent (water). Resistance conditions of the plants were counted 7 days and 14 days after spraying. Plants with growth conditions consistent with blank solvent (water) 7 days after spaying were classified as highly resistant plants; Plants with curly rosette leaves 7 days after spaying were classified as moderately resistant plants; Plants incapable of bolting 14 days after spaying were classified as low-resistant plants and the dead plants 14 days after spaying were classified as non-resistant plants. Because each Arabidopsis T1 plant is an independent transformation event, significant differences of individual T1 responses can be expected under a given dose.

[2] = test system: Arabidopsis T1 plants transformed with control nucleotide sequence; assay: Herbicide resistance effect test of Arabidopsis T1 plants, control sequence (spraying); type: in vivo, Arabidopsis thaliana; conditions: genotype Control, 560 g ae/ha (1x)
Text: as §1, §2

[3] = test system: wild-type Arabidopsis plants; assay: Herbicide resistance effect test of wild-type Arabidopsis (spraying); type: in vivo, Arabidopsis thaliana; conditions: genotype Wild, 560 g ae/ha (1x)
Text: as §1, §2

[4] = test system: Soybean plants containing 24DT21 nucleotide sequence (S1, S2, S3); assay: Herbicide-resistance effect of transgenic soybean T1 plants (spraying, damage degree); type: in vivo; conditions: 2240 g ae/ha (4x); for Average damage % 6 HAT: 6 hours after spraying; for Average damage % 2 DAT: 2 days after spraying; for Average damage % 7 DAT: 7 days after spraying; for Average damage % 14 DAT: 14 days after spraying
Procedure: (§3) Herbicide resistance effects tests to 2,4-D dimethyl ammonium salt and agroxone of soybean plants containing 24DT21 nucleotide sequence and control nucleotide sequence respectively and wild type soybean plants (stages V3-V4) were performed respectively.
(§4) Soybean plants containing 24DT21 nucleotide sequence, control nucleotide sequence and wild type soybean plants were taken and spayed with 2,4-D dimethyl ammonium salt (2240 g ae/ha, four-folds concentration in field), agroxone (2240 g ae/ha, four-folds concentration in field) and blank solvent (water). Take statistics of the damage degree of each plant caused by herbicides according to the curling degree of leaves and the damage degree of growing point six hours ([…]), two days (2DAT), seven days (7DAT) and 14 days (14DAT) after spraying respectively: if leaves are flat like wild-type leaves and the growing point is intact, the damage degree is 0%; if leaves curl up and wilt and the growing point is died, the damage degree is 100%. There are three strains contained a transferred 24DT21 nucleotide sequence (S1, S2 and S3), two strains contained a transferred control sequence (S4 and S5) and one wild-type strain (CK1) in total; select 10˜15 plants from each strain for testing.

[5] = test system: Soybean plants containing control nucleotide sequence (S4, S5); assay: Herbicide-resistance effect of soybean plants, control sequence (spraying, damage degree); type: in vivo; conditions: 2240 g ae/ha (4x); for Average damage % 6 HAT: 6 hours after spraying; for Average damage % 2 DAT: 2 days after spraying; for Average damage % 7 DAT: 7 days after spraying; for Average damage % 14 DAT: 14 days after spraying
Procedure: as §3, §4

[6] = test system: wild type soybean plants (CK1); assay: Herbicide-resistance effect of wild type soybean (spraying, damage degree); type: in vivo; conditions: wild-type soybean strain CK1, 2240 g ae/ha (4x)
Procedure: as §3, §4

[7] = test system: Corn plants containing 24DT21 nucleotide sequence (S6, S7, S8); assay: Herbicide-resistance effect test of transgenic corn T1 plants (spraying, prop root development); type: in vivo; conditions: 8960 g ae/ha (16x), 21 days after spraying; for Abnormal development of brace roots / Normal development of brace roots: number of plants
Procedure: (§5) Herbicide resistance effects tests to 2,4-D dimethyl ammonium salt and agroxone of corn plants containing 24DT21 nucleotide sequence, control nucleotide sequence respectively and wild type corn plants (stages V3-V4) were performed respectively.
(§6) Corn plants containing 24DT21 nucleotide sequence, control nucleotide sequence respectively and wild type corn plants were taken and spayed with 2,4-D dimethyl ammonium salt (8960 g ae/ha, 16-folds concentration in field), agroxone (8960 g ae/ha, 16-folds concentration in field) and blank solvent (water) respectively. Prop root development was counted 21 days after spaying. Three strains (S6, S7 and S8) of corn plants transformed with 24DT21 nucleotide sequence, two strains (S9 and S10) of corn plants transformed with control nucleotide sequence and 1 strain of wild type (CK2) corn were selected and 10-15 plants from each stain were tested.

[8] = test system: Corn plants containing control nucleotide sequence (S9, S10); assay: Herbicide-resistance effect test of corn plants, control sequence (spraying, prop root development); type: in vivo; conditions: 8960 g ae/ha (16x), 21 days after spraying; for Abnormal development of brace roots / Normal development of brace roots: number of plants
Procedure: as §5, §6

[9] = test system: wild type corn plants (CK2); assay: Herbicide-resistance effect test of wild type corn (spraying, prop root development); type: in vivo; conditions: wild type corn strain CK2, 8960 g ae/ha (16x), 21 days after spraying
Procedure: as §5, §6

[10] = number of plants of 32 dead 14 days after spraying
[11] = number of plants of 32 incapable of bolting 14 days after spraying
[12] = number of plants of 32 with curly rosette leaves 7 days after spraying
[13] = number of plants of 32 with growth consistent with blank solvent 7 days after spraying
[14] = soybean strain S4 (control sequence)
[15] = soybean strain S5 (control sequence)
[16] = corn strain S9 (control sequence)
[17] = corn strain S10 (control sequence)

## Cc1cc(Cl)ccc1OCC(=O)O [agroxone]
[1]; [10]
  Non-resistant: 7
[1]; [11]
  Low resistant: 2
[1]; [12]
  Moderate resistant: 2
[1]; [13]
  High resistant: 21
[2]; [10]
  Non-resistant: 32
[2]; [11]
  Low resistant: 0
[2]; [12]
  Moderate resistant: 0
[2]; [13]
  High resistant: 0
[3]; [10]
  Non-resistant: 32
[3]; [11]
  Low resistant: 0
[3]; [12]
  Moderate resistant: 0
[3]; [13]
  High resistant: 0
[4]; soybean strain S1 (24DT21)
  Average damage % 6 HAT: 10%
  Average damage % 2 DAT: 5%
  Average damage % 7 DAT: 0%
  Average damage % 14 DAT: 0%
[4]; soybean strain S2 (24DT21)
  Average damage % 6 HAT: 16%
  Average damage % 2 DAT: 11%
  Average damage % 7 DAT: 6%
  Average damage % 14 DAT: 0%
[4]; soybean strain S3 (24DT21)
  Average damage % 6 HAT: 7%
  Average damage % 2 DAT: 4%
  Average damage % 7 DAT: 0%
  Average damage % 14 DAT: 0%
[5]; [14]
  Average damage % 6 HAT: 38%
  Average damage % 2 DAT: 69%
  Average damage % 7 DAT: 87%
  Average damage % 14 DAT: 100%
[5]; [15]
  Average damage % 6 HAT: 47%
  Average damage % 2 DAT: 74%
  Average damage % 7 DAT: 92%
  Average damage % 14 DAT: 100%
[6]; 6 hours after spraying
  Average damage % 6 HAT: 34%
[6]; 2 days after spraying
  Average damage % 2 DAT: 61%
[6]; 7 days after spraying
  Average damage % 7 DAT: 82%
[6]; 14 days after spraying
  Average damage % 14 DAT: 100%
[7]; corn strain S6 (24DT21)
  Proportion of normal development of brace roots: 100.00%
  Abnormal development of brace roots: 0
  Normal development of brace roots: 11
[7]; corn strain S7 (24DT21)
  Proportion of normal development of brace roots: 100.00%
  Abnormal development of brace roots: 0
  Normal development of brace roots: 12
[7]; corn strain S8 (24DT21)
  Proportion of normal development of brace roots: 100.00%
  Abnormal development of brace roots: 0
  Normal development of brace roots: 13
[8]; [16]
  Proportion of normal development of brace roots: 0%
  Abnormal development of brace roots: 13
  Normal development of brace roots: 0
[8]; [17]
  Proportion of normal development of brace roots: 0%
  Abnormal development of brace roots: 10
  Normal development of brace roots: 0
[9]
  Proportion of normal development of brace roots: 0%
[9]; number of plants
  Abnormal development of brace roots: 15
  Normal development of brace roots: 0
